Results as given in ChEMBL document CHEMBL5352426, “Synthesis and anti-tumor activity of nitrogen-containing derivatives of the natural product diphyllin” (Eur J Med Chem, 2022).
pIC50: −log10 of the molar value. In brackets after ≈: the same amount, converted by molar mass. Blank lines part the entries; values can stand above or below the compound they belong to.

Assays:
[1] = Antiproliferative activity against human L02 cells assessed as inhibition of cell proliferation at 1 uM incubated for 72 hrs by SRB assay relative to control; assay type: toxicity, cell-based
MIA PaCa-2 [2] = test: Antiproliferative activity against human MIA PaCa-2 cells assessed as inhibition of cell proliferation at 1 uM incubated for 72 hrs by SRB assay relative to control; assay type: functional
CFPAC-1 [3] = test: Antiproliferative activity against human CFPAC-1 cells assessed as inhibition of cell proliferation at 1 uM incubated for 72 hrs by SRB assay relative to control; assay type: functional
PaTu 8988t [4] = test: Antiproliferative activity against human PaTu 8988t cells assessed as inhibition of cell proliferation at 1 uM incubated for 72 hrs by SRB assay relative to control; assay type: functional
Panc02 [5] = test: Antiproliferative activity against mouse Panc02 cells assessed as inhibition of cell proliferation at 1 uM incubated for 72 hrs by SRB assay relative to control; assay type: functional
[6] = Antiproliferative activity against human L02 cells assessed as inhibition of cell proliferation incubated for 72 hrs by SRB assay; assay type: toxicity, cell-based
MIA PaCa-2 [7] = test: Antiproliferative activity against human MIA PaCa-2 cells assessed as inhibition of cell proliferation incubated for 72 hrs by SRB assay; assay type: functional, cell-based; details: MIA PaCa-2, 72 h
CFPAC-1 [8] = test: Antiproliferative activity against human CFPAC-1 cells assessed as inhibition of cell proliferation incubated for 72 hrs by SRB assay; assay type: functional, cell-based; details: CFPAC-1, 72 h
PaTu 8988t [9] = test: Antiproliferative activity against human PaTu 8988t cells assessed as inhibition of cell proliferation incubated for 72 hrs by SRB assay; assay type: functional, cell-based
Panc02 [10] = test: Antiproliferative activity against mouse Panc02 cells assessed as inhibition of cell proliferation incubated for 72 hrs by SRB assay; assay type: functional, cell-based; details: Panc02, 72 h
[11] = Metabolic stability in human liver microsome assessed as half life; assay type: ADME; details: liver microsomes
[12] = Metabolic stability in human liver microsome assessed as intrinsic clearance; assay type: ADME; details: liver microsomes, read-out: CLH
[13] = Metabolic stability in human liver microsome assessed as hepatic clearance; assay type: ADME; details: microsomes
[14] = Metabolic stability in mouse liver microsome assessed as half life; assay type: ADME; details: liver microsomes
[15] = Metabolic stability in mouse liver microsome assessed as intrinsic clearance; assay type: ADME; details: liver microsomes, read-out: CLH
[16] = Metabolic stability in mouse liver microsome assessed as hepatic clearance; assay type: ADME; details: microsomes
[17] = Aqueous solubility of the compound at 1 to 2 mg measured after 24 hrs by HPLC-MS analysis; assay type: physicochemical; details: aqueous (not further specified), dose 1-2 mg
CFPAC-1 [18] = test: Induction of cell cycle arrest in human CFPAC-1 cells assessed as accumulation at G1 phase at 10 nM incubated for 24 hrs by flow cytometry (reference value: 57.6 %); assay type: functional
CFPAC-1 [19] = test: Induction of cell cycle arrest in human CFPAC-1 cells assessed as accumulation at S phase at 10 nM incubated for 24 hrs by flow cytometry (reference value: 28.5 %); assay type: functional
CFPAC-1 [20] = test: Induction of cell cycle arrest in human CFPAC-1 cells assessed as accumulation at G2 phase at 10 nM incubated for 24 hrs by flow cytometry (reference value: 11 %); assay type: functional
CFPAC-1 [21] = test: Induction of cell cycle arrest in human CFPAC-1 cells assessed as accumulation at G1 phase at 100 nM incubated for 24 hrs by flow cytometry (reference value: 57.6 %); assay type: functional
CFPAC-1 [22] = test: Induction of cell cycle arrest in human CFPAC-1 cells assessed as accumulation at S phase at 100 nM incubated for 24 hrs by flow cytometry (reference value: 28.5 %); assay type: functional
CFPAC-1 [23] = test: Induction of cell cycle arrest in human CFPAC-1 cells assessed as accumulation at G2 phase at 100 nM incubated for 24 hrs by flow cytometry (reference value: 11 %); assay type: functional
CFPAC-1 [24] = test: Induction of cell cycle arrest in human CFPAC-1 cells assessed as accumulation at G1 phase at 1000 nM incubated for 24 hrs by flow cytometry (reference value: 57.6 %); assay type: functional
CFPAC-1 [25] = test: Induction of cell cycle arrest in human CFPAC-1 cells assessed as accumulation at S phase at 1000 nM incubated for 24 hrs by flow cytometry (reference value: 28.5 %); assay type: functional
CFPAC-1 [26] = test: Induction of cell cycle arrest in human CFPAC-1 cells assessed as accumulation at G2 phase at 1000 nM incubated for 24 hrs by flow cytometry (reference value: 11 %); assay type: functional
CFPAC-1 [27] = test: Induction of apoptosis in human CFPAC-1 cells assessed as viable cells at 1 uM incubated for 24 hrs by annexin V-FITC/PI staining based flow cytometry (reference value: 92.9 %); assay type: functional; details: read-out: Activity
CFPAC-1 [28] = test: Induction of apoptosis in human CFPAC-1 cells assessed as early apoptotic cells at 1 uM incubated for 24 hrs by annexin V-FITC/PI staining based flow cytometry (reference value: 2.93 %); assay type: functional
CFPAC-1 [29] = test: Induction of apoptosis in human CFPAC-1 cells assessed as late apoptotic cells at 1 uM incubated for 24 hrs by annexin V-FITC/PI staining based flow cytometry (reference value: 3.88 %); assay type: functional
CFPAC-1 [30] = test: Induction of apoptosis in human CFPAC-1 cells assessed as necrotic cells at 1 uM incubated for 24 hrs by annexin V-FITC/PI staining based flow cytometry (reference value: 0.27 %); assay type: functional
CFPAC-1 [31] = test: Induction of apoptosis in human CFPAC-1 cells assessed as viable cells at 10 uM incubated for 24 hrs by annexin V-FITC/PI staining based flow cytometry (reference value: 92.9 %); assay type: functional; details: read-out: Activity
CFPAC-1 [32] = test: Induction of apoptosis in human CFPAC-1 cells assessed as early apoptotic cells at 10 uM incubated for 24 hrs by annexin V-FITC/PI staining based flow cytometry (reference value: 2.93 %); assay type: functional
CFPAC-1 [33] = test: Induction of apoptosis in human CFPAC-1 cells assessed as late apoptotic cells at 10 uM incubated for 24 hrs by annexin V-FITC/PI staining based flow cytometry (reference value: 3.88 %); assay type: functional
CFPAC-1 [34] = test: Induction of apoptosis in human CFPAC-1 cells assessed as necrotic cells at 10 uM incubated for 24 hrs by annexin V-FITC/PI staining based flow cytometry (reference value: 0.27 %); assay type: functional
Panc02 [35] = test: Antitumor activity against […] Panc02 cells xenografted in C57BL/6 mouse assessed as tumor growth inhibition at 10 mg/kg, ip administered every two days for 20 days by electronic caliper method relative to control; assay type: functional; details: Panc02, 480 h, time 20 day, read-out: TGI
[36] = Toxicity in C57BL/6 mouse xenografted with […] cells assessed as drug tolerance at 10 mg/kg, ip administered every two days for 20 days; assay type: organism-based; details: in vivo, 480 h, time 20 day
[37] = Toxicity in C57BL/6 mouse xenografted with […] cells assessed as body weight loss at 10 mg/kg, ip administered every two days for 20 days; assay type: organism-based; details: in vivo, 480 h, time 20 day

pIC50 (MIA PaCa-2 [7]): 7.96
pIC50 (Panc02 [10]): 7.72
half-life [11]: 88.7 min
microsomal CLint [12]: 15.6 µL/min/mg
CLH [13]: 9.6 mL/min/kg
half-life [14]: 28.5 min
microsomal CLint [15]: 48.7 µL/min/mg
CLH [16]: 61.3 mL/min/kg
solubility at 24 h [17]: 0.028 µg/mL (≈ 0.0738 µM)
Structure (SMILES): COc1cc2c(N)c3c(c(-c4ccc5c(c4)OCO5)c2cc1OC)C(=O)OC3
inhibition at 72 h, 1 µM [1]: 34.4%
inhibition at 1 µM (MIA PaCa-2 [2]): 91%
inhibition at 1 µM (CFPAC-1 [3]): 78.6%
inhibition at 1 µM (PaTu 8988t [4]): 89.9%
inhibition at 1 µM (Panc02 [5]): 90%
IC50 at 72 h [6]: 0.487 µM
pIC50 (CFPAC-1 [8]): 8.52
pIC50 (PaTu 8988t [9]): 7.43
Activity (CFPAC-1 [18]): 74.3%
Activity (CFPAC-1 [19]): 15.6%
Activity (CFPAC-1 [20]): 8%
Activity (CFPAC-1 [21]): 80.9%
Activity (CFPAC-1 [22]): 12.7%
Activity (CFPAC-1 [23]): 3.61%
Activity (CFPAC-1 [24]): 83.8%
Activity (CFPAC-1 [25]): 10.3%
Activity (CFPAC-1 [26]): 3.66%
viability at 1 µM (CFPAC-1 [27]): 84.8%
Activity (CFPAC-1 [28]): 2.91%
Activity (CFPAC-1 [29]): 11.9%
Activity (CFPAC-1 [30]): 0.4%
viability at 10 µM (CFPAC-1 [31]): 86.1%
Activity (CFPAC-1 [32]): 2.21%
Activity (CFPAC-1 [33]): 11%
Activity (CFPAC-1 [34]): 0.69%
inhibition in vivo at 10 mg/kg (Panc02 [35]): 44.7%
Activity [36]: Non-Toxic
Activity [37]: Non-Toxic

pIC50 (MIA PaCa-2 [7]): 7.40
pIC50 (Panc02 [10]): 7.92
half-life [11]: < 5 min
microsomal CLint [12]: > 277 µL/min/mg
CLH [13]: > 19.4 mL/min/kg
half-life [14]: < 5 min
microsomal CLint [15]: > 277 µL/min/mg
CLH [16]: > 83.2 mL/min/kg
Structure (SMILES): COc1cc2c(OCCCc3cn([C@H]4O[C@@H](C)[C@H](OC(C)=O)[C@@H](OC(C)=O)[C@H]4OC(C)=O)nn3)c3c(c(-c4ccc5c(c4)OCO5)c2cc1OC)C(=O)OC3
inhibition at 72 h, 1 µM [1]: 38.3%
inhibition at 1 µM (MIA PaCa-2 [2]): 93.6%
inhibition at 1 µM (CFPAC-1 [3]): 75.7%
inhibition at 1 µM (PaTu 8988t [4]): 93.9%
inhibition at 1 µM (Panc02 [5]): 86.7%
IC50 at 72 h [6]: 0.494 µM
pIC50 (CFPAC-1 [8]): 8.15
pIC50 (PaTu 8988t [9]): 7.62
